Source: patent publication US20150064273A1, “Mesenchymal Stem Cells Conditioned Medium and Methods of Generating and Using the Same” (Gamida-Cell Ltd., priority 2012, published 2015)

Assays:
Format in all cases: cell-based
IL-6 = IL-6 content of MSC conditioned medium by ELISA; settings: passage 4; 5 mM NAM, 50 ng/ml FGF4; serum- and FGF4-free medium for 24 hours
Protocol: FIG. 25 is a bar graph illustrating reduction of cytokine IL-6 (IL-6) content of conditioned medium from nicotinamide and FGF4-treated MSC cultures. Bone marrow mesenchymal stem cells were isolated and cultured as in FIG. 22 above. Cultured media was changed to medium without fetal bovine serum or FGF4 24 hours prior to passage 4, collected from the passage 4 cultures and assayed for IL-6 content by ELISA. −NAM, −FGF4=control; +NAM−FGF4=5 mM NAM, +NAM+FGF4=5 mM NAM+50 ng/ml FGF4. […] In order to assess whether mesenchymal stem cells cultured with nicotinamide or nicotinamide and FGF4 modify the culture medium in a unique manner, secretion of biologically active molecules into the culture medium was measured by ELISA, after depletion of the FGF4 from the medium.

mesenchymal stem cells = assay: Mesenchymal stem cell culture with growth factors with or without nicotinamide, cell counts
Protocol: Isolation: Bone marrow derived and adipose tissue derived mesenchymal cells were isolated based on their plastic adherence potential in expansion medium containing: High glucose DMEM and 10% Fetal Bovine Serum (FBS, Hyclone, Logan, Utah, USA) supplemented with 0.05 mg/ml Gentamicin (Sigma) and 2 mM L-glutamine (Biological Industries, Israel). Cells were allowed to adhere for 3-4 days and non-adherent cells were washed out with medium changes. The medium was further exchanged with fresh medium every 3-4 days.
Maintenance and expansion: Once adherent cells reached approximately 80-90% confluency, they were detached with 0.25% trypsin-EDTA (Sigma), washed twice in DMEM and 10% Fetal Bovine Serum, with centrifugation, 400 g, 5 minutes, and re-plated at a 1:2 to 1:1000 dilution under the same culture conditions.
Measurement of number of cells in culture: Cell number was measured using Cedex Automated Cell Counter (Innovatis). The cells were diluted 1:2 in Trypan Blue (Sigma) and cell number was measured automatically under microscope.
Treatment of mesenchymal cultures with nicotinamide: Mesenchymal cultures were initiated as described above, and supplemented with nicotinamide 1-15 mM alone, or in combination with growth factors or growth factors alone, incubated at 37° C. in a humidified atmosphere of 5% CO2 in air. At each passage and at each medium exchange, the cultures were supplemented with mesenchymal medium, nicotinamide and growth factors.
Mesenchymal stem cells were selected and cultured in the presence of particular growth factors (basic fibroblast growth factor—bFGF, heparin binding epidermal growth factor—HB-EGF, fibroblast growth factor 4—FGF-4 and platelet derived growth factor, homodimer, subunit B, PDGF-BB) in the presence and absence of nicotinamide for three or four passages and the number and size of the cells was calculated.
Two concentrations (10 and 50 ng/ml) of each one of the following factors were examined.
In addition, the influence of the combination: 5 mM NAM+50 ng/ml FGF4+50 ng/ml PDGF-BB was examined in comparison to an individual supplement.

[1] = tested on: Keratinocyte Growth Factor (KGF); assay: KGF content of MSC conditioned medium by ELISA; settings: passage 4; 5 mM NAM, 50 ng/ml FGF4; serum- and FGF4-free medium for 24 hours
Protocol: (§1) FIG. 24 is a bar graph illustrating enhancement of Keratinocyte Growth Factor (KGF) content of conditioned medium from nicotinamide and FGF4-treated MSC cultures. Bone marrow mesenchymal stem cells were isolated and cultured as in FIG. 22 above. Cultured media was changed to medium without fetal bovine serum or FGF4 24 hours prior to passage 4, collected from the passage 4 cultures and assayed for KGF content by ELISA. −NAM, −FGF4=control; +NAM−FGF4=5 mM NAM, +NAM+FGF4=5 mM NAM+50 ng/ml FGF4. Note the significant effect of combined FGF4 and nicotinamide on KGF secretion; Mesenchymal stem cells cultured with nicotinamide and FGF4 have enhanced expansion potential, and maintain an undifferentiated state, compared to mesenchymal stem cells cultured in unsupplemented medium, or mesenchymal stem cells cultured with added nicotinamide alone. In order to assess whether mesenchymal stem cells cultured with nicotinamide or nicotinamide and FGF4 modify the culture medium in a unique manner, secretion of biologically active molecules into the culture medium was measured by ELISA, after depletion of the FGF4 from the medium.

[2] = tested on: Transforming Growth Factor-β (TGFβ); assay: TGFβ content of MSC conditioned medium by ELISA; settings: passage 4; 5 mM NAM, 50 ng/ml FGF4; serum- and FGF4-free medium for 24 hours
Protocol: as §1, with “FIG. 23” for “FIG. 24”, “of Transforming” for “of Keratinocyte”, “Growth Factor-β (TGFβ)” for “Growth Factor (KGF)”, “for TGFβ” for “for KGF”, “on TGFβ” for “on KGF”

[3] = tested on: adipose derived mesenchymal stem cells; assay: Adipose tissue derived MSC expansion and cell size with nicotinamide, with or without FGF4; settings: 5 mM NAM, 50 ng/ml FGF4
Protocol: FIG. 15 is a graph illustrating the effect of nicotinamide, with and without FGF4 on adipose-derived MSC proliferation, through 4 passages of culture. Adipose derived mesenchymal stem cells were isolated using collagenase digestion and plastic adherence method, and cultured for several passages with fetal bovine serum. −NAM−FGF4=controls (blue diamonds), +NAM−FGF4=culture with 5 mM NAM (red squares), +NAM+FGF4=culture with 50 ng/ml FGF4 and 5 mM NAM (green triangles). Note the synergic effect of Nicotinamide and FGF4 added together on adipose-derived MSC proliferation; FIG. 16 is a graph detailing the effect of nicotinamide, with and without FGF4 on nucleated cell proliferation in adipose-derived MSC proliferation at passage 4. Adipose-derived mesenchymal stem cells were isolated and cultured as described in FIG. 15. −NAM−FGF4=controls, +NAM−FGF4=culture with 5 mM NAM, +NAM+FGF4=culture with 50 ng/ml FGF4 and 5 mM NAM. […] Cell size was analyzed by Cedex cell counter. −NAM−FGF4=controls, +NAM−FGF4=culture with 5 mM NAM, +NAM+FGF4=culture with 50 ng/ml FGF4 and 5 mM NAM. Note the smaller size of MSC cells grown in the presence of nicotinamide, and even smaller MSCs grown with nicotinamide and FGF4; Proliferation and cell size distribution in adipose-derived mesenchymal stem cells cultured with nicotinamide with or without additional FGF4 was assessed in up to 4 passages of the cultures.

Structure (SMILES): NC(=O)c1cccnc1 [nicotinamide, Nicotinamide]
- IL-6 secreted into conditioned medium (IL-6): reduction
- effect on the ability of FGF4 to increase proliferation of mesenchymal stem cells (mesenchymal stem cells; 5 mM NAM with FGF4 50 ng/ml): potentiating effect
- proliferative capacity of large batches of MSCs (mesenchymal stem cells; cultured with nicotinamide): enhanced proliferative capacity
- KGF level in conditioned medium [1]: elevated levels
- TGF-β level in conditioned medium [2]: elevated levels
- size of the expanded adipose-derived mesenchymal stem cells ([3]; Cedex cell counter): enhanced growth of populations of smaller (less differentiated) cells
- adipose derived mesenchymal stem cell expansion in culture ([3]; up to 4 passages): substantially improved
